From ChEMBL document CHEMBL4219044, “Challenges in the design of insulin and relaxin/insulin-like peptide mimetics” (Bioorg Med Chem, 2018)
Residues, ends and D or L forms follow the SMILES beside them.

How the values were obtained:
[1] = molecular target: T1, Insulin receptor (Homo sapiens, UniProt P06213); experiment: Activation of recombinant human insulin receptor using biotin-KSRGDYMTMQIG as substrate after 1 hr by spectrophotometry relative to insulin
[2] = molecular target: Insulin receptor (Mus musculus, UniProt P15208); experiment: Agonist activity at B6D2F1 mouse insulin receptor assessed as increase in glucose incorporation into lipid phase after 2 hrs in presence of D-[3-3H]glucose by TopCount microplate scintillation counting method
[3] = molecular target: T1, Insulin receptor; experiment: Displacement of [TyrA14-125I]-human insulin from human insulin receptor isoform A expressed in baby hamster kidney cells after 2 days by gamma counting method; format: cell-based

T1 sequence (P06213 28-758 limits assumed): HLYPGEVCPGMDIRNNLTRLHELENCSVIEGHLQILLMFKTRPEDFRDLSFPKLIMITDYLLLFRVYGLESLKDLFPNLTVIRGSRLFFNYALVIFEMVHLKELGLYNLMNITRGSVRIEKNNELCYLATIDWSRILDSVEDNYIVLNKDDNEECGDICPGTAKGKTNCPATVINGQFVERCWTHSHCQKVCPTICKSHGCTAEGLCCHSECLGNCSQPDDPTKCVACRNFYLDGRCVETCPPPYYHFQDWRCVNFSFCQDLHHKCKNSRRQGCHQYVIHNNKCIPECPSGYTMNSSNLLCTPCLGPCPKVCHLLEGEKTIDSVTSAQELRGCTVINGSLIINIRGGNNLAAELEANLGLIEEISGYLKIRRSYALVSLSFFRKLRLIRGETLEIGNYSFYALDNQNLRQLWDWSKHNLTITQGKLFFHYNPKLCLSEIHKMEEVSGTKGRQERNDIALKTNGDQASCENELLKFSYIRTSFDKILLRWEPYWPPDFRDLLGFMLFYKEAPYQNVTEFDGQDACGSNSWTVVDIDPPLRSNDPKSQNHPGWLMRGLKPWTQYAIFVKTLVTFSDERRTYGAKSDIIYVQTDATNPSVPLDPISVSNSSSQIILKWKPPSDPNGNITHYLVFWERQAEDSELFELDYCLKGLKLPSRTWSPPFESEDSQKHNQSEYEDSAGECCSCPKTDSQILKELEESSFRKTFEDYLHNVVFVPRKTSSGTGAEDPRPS
T1 sequence (P06213 763-1382 limits assumed): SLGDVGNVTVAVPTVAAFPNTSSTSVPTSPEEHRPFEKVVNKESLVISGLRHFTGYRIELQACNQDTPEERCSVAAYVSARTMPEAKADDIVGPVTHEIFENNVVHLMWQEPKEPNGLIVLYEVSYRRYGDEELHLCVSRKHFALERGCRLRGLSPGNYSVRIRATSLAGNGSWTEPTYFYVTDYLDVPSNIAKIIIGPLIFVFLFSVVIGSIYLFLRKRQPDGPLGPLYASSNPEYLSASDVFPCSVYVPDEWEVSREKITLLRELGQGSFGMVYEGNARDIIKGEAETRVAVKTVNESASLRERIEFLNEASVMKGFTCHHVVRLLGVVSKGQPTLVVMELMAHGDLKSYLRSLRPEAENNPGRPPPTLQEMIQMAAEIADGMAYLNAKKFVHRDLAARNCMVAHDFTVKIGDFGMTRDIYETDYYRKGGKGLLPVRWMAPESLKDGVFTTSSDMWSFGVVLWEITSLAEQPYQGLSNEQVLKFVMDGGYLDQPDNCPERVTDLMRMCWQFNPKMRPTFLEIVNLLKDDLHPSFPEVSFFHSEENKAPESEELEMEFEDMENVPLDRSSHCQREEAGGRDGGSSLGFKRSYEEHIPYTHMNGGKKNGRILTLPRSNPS
Insulin receptor (Mus musculus, UniProt P15208), sequence (P15208 28-748 limits assumed): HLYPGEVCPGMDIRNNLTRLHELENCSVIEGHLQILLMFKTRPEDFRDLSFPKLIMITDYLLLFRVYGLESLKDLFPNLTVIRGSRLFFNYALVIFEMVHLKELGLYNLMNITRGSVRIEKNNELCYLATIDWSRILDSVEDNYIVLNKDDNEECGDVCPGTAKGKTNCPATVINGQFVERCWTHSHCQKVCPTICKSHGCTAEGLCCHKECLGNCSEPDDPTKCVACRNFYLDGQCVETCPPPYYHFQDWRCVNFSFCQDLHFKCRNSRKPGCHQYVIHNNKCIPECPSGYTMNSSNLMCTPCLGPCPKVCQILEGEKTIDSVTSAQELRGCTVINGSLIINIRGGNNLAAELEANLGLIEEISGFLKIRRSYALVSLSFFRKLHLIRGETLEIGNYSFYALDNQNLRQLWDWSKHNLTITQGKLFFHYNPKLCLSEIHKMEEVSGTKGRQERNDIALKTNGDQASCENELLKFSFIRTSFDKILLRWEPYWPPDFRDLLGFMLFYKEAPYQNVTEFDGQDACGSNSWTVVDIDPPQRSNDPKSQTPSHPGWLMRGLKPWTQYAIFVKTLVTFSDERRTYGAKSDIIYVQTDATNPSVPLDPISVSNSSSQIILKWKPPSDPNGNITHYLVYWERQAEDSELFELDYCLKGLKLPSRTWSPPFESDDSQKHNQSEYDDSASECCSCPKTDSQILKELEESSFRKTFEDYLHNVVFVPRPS
Insulin receptor (Mus musculus, UniProt P15208), sequence (P15208 753-1372 limits assumed): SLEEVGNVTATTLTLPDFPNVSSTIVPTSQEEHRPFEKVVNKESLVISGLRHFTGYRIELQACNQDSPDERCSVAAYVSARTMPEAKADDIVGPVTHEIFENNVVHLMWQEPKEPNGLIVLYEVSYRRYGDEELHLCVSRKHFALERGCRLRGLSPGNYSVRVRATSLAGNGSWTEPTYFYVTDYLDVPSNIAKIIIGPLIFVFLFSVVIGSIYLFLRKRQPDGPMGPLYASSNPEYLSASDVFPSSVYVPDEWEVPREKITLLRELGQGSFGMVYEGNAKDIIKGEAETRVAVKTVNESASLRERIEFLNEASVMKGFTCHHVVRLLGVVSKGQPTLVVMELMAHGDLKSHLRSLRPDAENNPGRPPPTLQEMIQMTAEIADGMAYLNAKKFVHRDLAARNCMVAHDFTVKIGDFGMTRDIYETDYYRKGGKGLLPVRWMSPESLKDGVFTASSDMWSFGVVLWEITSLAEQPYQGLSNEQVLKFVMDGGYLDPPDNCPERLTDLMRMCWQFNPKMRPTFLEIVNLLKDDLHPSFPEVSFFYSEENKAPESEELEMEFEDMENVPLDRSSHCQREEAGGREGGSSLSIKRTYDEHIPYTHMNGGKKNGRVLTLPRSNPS

- Activity [1]: 10%
- EC50 [2]: 4 nM
- Kd [3]: 0.02 nM
SMILES: CC(C)C[C@H](NC(=O)[C@H](CCC(N)=O)NC(=O)[C@H](CCCNC(=N)N)NC(=O)[C@H](CCC(=O)O)NC(=O)[C@H](Cc1ccccc1)NC(=O)[C@H](Cc1c[nH]c2ccccc12)NC(=O)[C@H](CC(=O)O)NC(=O)[C@H](Cc1ccc(O)cc1)NC(=O)[C@H](Cc1ccccc1)NC(=O)[C@H](CO)NC(=O)[C@H](CCC(=O)O)NC(=O)[C@H](CC(=O)O)NC(=O)[C@H](CC(C)C)NC(=O)[C@H](CO)NC(=O)CNC(=O)[C@H](CO)NC(=O)[C@@H]1CCCN1C(=O)[C@H](CS)NC(=O)CNC(=O)[C@H](CCCNC(=N)N)NC(=O)CNC(=O)[C@H](Cc1ccc(O)cc1)NC(=O)[C@@H](NC(=O)[C@H](CCC(=O)O)NC(=O)[C@H](CS)NC(=O)[C@H](CCC(=O)O)NC(=O)[C@@H](NC(=O)[C@H](CCC(N)=O)NC(=O)[C@H](C)NC(=O)[C@H](Cc1c[nH]c2ccccc12)NC(=O)[C@H](CCC(=O)O)NC(=O)[C@H](CCC(=O)O)NC(=O)[C@H](CCC(=O)O)NC(=O)[C@H](CC(C)C)NC(=O)[C@@H](N)CO)C(C)C)C(C)C)C(=O)NCC(=O)O (H-SLEEEWAQVECEVYGRGCPSGSLDESFYDWFERQLG-OH)
